Data on 2 compounds can be found in publication PMC3655251, “Urea Output by L3 Teladorsagia circumcincta and some Properties of Two Urea Producing Enzymes” (Iranian Journal of Parasitology, 2013).

Assay [1] deals with T1, arginine amidinohydrolase.
T1 construct: native enzyme in crude homogenate of L3 larvae, not purified
Nature of the assay: coupled urease / glutamate dehydrogenase assay, NADH oxidation at […] nm. It is filed as biochemical, Teladorsagia circumcincta. The settings on record: L3 homogenate, 100 mM phosphate buffer, 30 °C, no metal added; read-out: apparent K m.

In assay [2] the test system is T2, creatine amidinohydrolase.
T2 construct: native activity in crude homogenate of L3 larvae, not purified; no nematode gene homologue found by the authors
The assay is described as above. It is filed as biochemical, Teladorsagia circumcincta. The settings on record: L3 homogenate, 100 mM phosphate buffer, 30 °C, no metal added; read-out: apparent K m.

For `N=C(N)NCCC[C@H](N)C(=O)O` [arginine], the Km in assay [1] was found to be 700 ± 200 µM.

As for `CN(CC(=O)O)C(=N)N` [creatine], the Km in assay [2] stood at 1100 ± 100 µM.
